Data from US12485118B2, “Combinations of GLP-1R and THRβ agonists and methods of use thereof” (Terns Pharmaceuticals, Inc., priority 2023, dated 2025).
“Also recorded” adds a separate entry of the source. Where two headings read alike, the source gives them in different places.

Tests used:
DIO hGLP-1R mice = test: Compound 9 in combination with orforglipron in DIO hGLP-1R mice: body weight, food intake, body mass composition, subcutaneous fat, liver weight; type: in vivo, mouse; details: Compound 9 3 mg/kg, orforglipron 0.2 and 2 mg/kg, combination 3 + 0.2 mg/kg; for body weight changes from baseline over time: PO QD 21 days; for terminal subcutaneous fat: study termination
Protocol: DIO hGLP-1R mice were housed at room temperature (21-25° C.) with a relative humidity of 40-70%. Temperature and relative humidity were monitored and recorded twice daily. An electronic time-controlled lighting system was used to provide a 12 h light/12 h dark cycle, 19:00 pm-7:00 am, lights out and enrichment toys were provided. The mice were fed high fat diet (HFD, Research Diets 12492, 60% kca, 1% fat) for >50 weeks to induce obesity. Mice were acclimated to once-daily (QD) oral dosing (per os, PO) for 1 week with body weight and food intake measured on consecutive 4 days prior to dosing start (Day 1). Body mass composition was measured by EchoMRI (Bruker Minispec LF90II) on Day 0 and mice were randomized to treatment groups (Table 5-1) based on baseline body weight, food intake, and body composition.
Body mass composition was assessed on Day 19. […] Subcutaneous fat was collected and weighed at study termination.

[1] = Plasma pharmacokinetics of Compound 9 and orforglipron in DIO hGLP-1R mice; details: for AUC(0-t) / Cmax: hGLP-1R transgenic (expressing human GLP-1R)
Protocol: Test compounds were formulated in vehicle (10% [v/v]Solutol HS15+90% [v/v]saline) and mice were treated QD PO for 21 days with vehicle, Compound 9 (3 mg/kg), orforglipron (0.2 and 2 mg/kg), and Compound 9 (3 mg/kg) in combination with orforglipron (0.2 mg/kg). Body weight and food intake were measured daily, and mice were maintained on HFD throughout the study period. On Day 20 of the study, plasma samples were collected at predose (O), 2-, 4-, 8-, and 24-hours postdose for pharmacokinetic analyses of Compound 9, orforglipron, and combination treatment groups. Body mass composition was assessed on Day 19. Liver was collected and weighed at study termination and portions were preserved for steatosis assessment by histology. Subcutaneous fat was collected and weighed at study termination. A sample of subcutaneous fat tissue was assessed for UCP-1 expression by qPCR and Western blot analyses.

humans = details: cited from earlier work
rodent GLP-1R = molecular target: T1, rodent GLP-1R (Mus musculus, UniProt O35659); details: cited from earlier work
T1 sequence (O35659 22-463): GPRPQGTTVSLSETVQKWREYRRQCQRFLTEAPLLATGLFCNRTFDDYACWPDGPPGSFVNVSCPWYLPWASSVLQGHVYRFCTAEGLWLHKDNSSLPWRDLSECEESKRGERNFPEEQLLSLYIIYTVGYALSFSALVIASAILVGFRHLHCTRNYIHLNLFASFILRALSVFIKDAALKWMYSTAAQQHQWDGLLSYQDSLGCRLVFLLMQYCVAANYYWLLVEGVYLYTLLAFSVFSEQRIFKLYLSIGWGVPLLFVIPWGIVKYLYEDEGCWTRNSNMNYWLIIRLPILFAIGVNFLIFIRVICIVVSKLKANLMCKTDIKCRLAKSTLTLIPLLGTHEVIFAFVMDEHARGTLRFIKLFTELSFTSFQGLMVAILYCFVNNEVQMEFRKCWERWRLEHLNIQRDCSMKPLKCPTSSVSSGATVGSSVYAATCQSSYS

male DIO mice [2] = test: 6 weeks of Compound 9 alone and in combination with semaglutide: body weight, food intake, body composition (EchoMRI) in male DIO mice at thermoneutrality; type: in vivo, mouse; details: Compound 9 6 mg/kg PO combined with Semaglutide 30 nmol/kg SC
Protocol: (§1) Male C57BL/6JRj mice (5 weeks of age, n=70) were fed a high fat diet (n=60, 60% HFD, D12492, Ssniff) for 24 weeks, or a lean-chow diet (n=10, Altromin 1324) before treatment start. HFD animals were randomized during week -1 based on body weight, glucose levels and fat tissue mass into 5 treatments groups. Lean mice (group 1) were treated with vehicle (QD+QD, PO+SC) and DIO mice were treated (QD+QD, PO+SC) as follow: group 2 received vehicle (PO+SC), group 3 received Compound 9 6 mg/kg, PO+vehicle (SC), group 4 received Semaglutide (30 nmol/kg, SC)+vehicle (PO), group 5 received Compound 9 (6 mg/kg, PO)+Semaglutide (30 nmol/kg, SC) and group 6 received Tirzepatide (30 nmol/kg, SC)+vehicle (PO). Body weight, food and water intake were measured daily from day -3, body composition (EchoMRI) was measured during week -1 and week 6; energy expenditure was assessed at study day 5-7 and at study day 34-36. Fasting blood glucose and insulin levels were measured at baseline and termination, while an oral glucose tolerance test was performed at week 4. At termination, the M gastrocnemius muscle was weighted and collected for RNAseq analysis, while plasma, brain, liver, BAT, epidydimal and subcutaneous WAT depots were collected for sponsor.

male DIO mice [3] = test: Energy expenditure (heat production, RER, oxygen consumption) in male DIO mice at thermoneutrality; type: in vivo, mouse
Protocol: as §1

male DIO mice [4] = test: Glycemic control: oral glucose tolerance test and plasma insulin in male DIO mice at thermoneutrality; type: in vivo, mouse; details: week 6
Protocol: On the day of the OGTT, random blood glucose and body weight of the mice are measured, mice are dosed with corresponding compounds or vehicle in the morning before fasting, then the mice are fasted for 6 hours, basal fasting glucose is measured by tail vein nick thereafter. Glucose is orally gavaged with 2 g/kg at a dose volume of 5 mL/kg. Blood glucose levels are measured at 0 (pre-dose), 15-, 30-, 60-, and 120-min post glucose dosing. The second dose is administrated after OGTT treatment.
Male C57BL/6JRj mice (5 weeks of age, n=70) were fed a high fat diet (n=60, 60% HFD, D12492, Ssniff) for 24 weeks, or a lean-chow diet (n=10, Altromin 1324) before treatment start. HFD animals were randomized during week -1 based on body weight, glucose levels and fat tissue mass into 5 treatments groups. […] Body weight, food and water intake were measured daily from day -3, body composition (EchoMRI) was measured during week -1 and week 6; energy expenditure was assessed at study day 5-7 and at study day 34-36. Fasting blood glucose and insulin levels were measured at baseline and termination, while an oral glucose tolerance test was performed at week 4. […]

[5] = tested on: uncoupling protein 1 (UCP-1) expression in subcutaneous adipose tissue; test: UCP-1 expression in subcutaneous adipose tissue of DIO mice; type: in vivo, mouse
Protocol: Body weight, food and water intake are measured daily. Body composition is measured using EchoMRI. Subcutaneous fat is collected and weighed at study termination.
as §1, with “At termination, the M gastrocnemius muscle was weighted and collected for RNAseq analysis, while plasma, brain, liver, BAT, epidydimal and subcutaneous WAT depots were collected for sponsor.” left out

Cc1cc(-n2nc3c(c2-n2ccn(-c4ccc5c(cnn5C)c4F)c2=O)[C@H](C)N(C(=O)c2cc4cc([C@H]5CCOC(C)(C)C5)ccc4n2[C@@]2(c4noc(=O)[nH]4)C[C@@H]2C)CC3)cc(C)c1F [orforglipron]
fat mass change from baseline (DIO hGLP-1R mice; Day 19, PO QD): dose-dependent decrease in fat mass
body weight changes from baseline over time (DIO hGLP-1R mice): dose-dependent body weight decreases over time
daily food intake (DIO hGLP-1R mice; PO QD): profoundly reduced in a dose-dependent manner during the first few days
terminal subcutaneous fat (DIO hGLP-1R mice; PO QD): dose-dependent decrease in subcutaneous fat, although only the high dose was significantly different from vehicle treatment
unbound exposure AUC24h,u ([1]; 0.2 mg/kg daily in mice, equivalent to 6 mg/day in humans): ~0.300 ng·h/mL
unbound exposure AUC24h,u ([1]; 2 mg/kg daily in mice, equivalent to 45 mg/day in humans): ~1.60 ng·h/mL
AUC(0-t) ([1]; mouse, in vivo, po, 0.2 mg/kg): 543 ng·h/mL
Cmax ([1]; mouse, in vivo, po, 0.2 mg/kg): 47.4 ng/mL
AUC(0-t) ([1]; mouse, in vivo, po, 2 mg/kg): 2670 ng·h/mL
Cmax ([1]; mouse, in vivo, po, 2 mg/kg): 251 ng/mL
exposure (dose proportionality, effect of combination) ([1]; mouse, in vivo, po): increased in a less than dose-proportional manner
exposure (dose proportionality, effect of combination) ([1]; plasma, Day 20, PO QD): largely unaffected when dosed in combination with Compound 9
occurrence of total adverse events compared to placebo, OR (humans; 12 mg daily dose): 2.49 (95% CI: 1.25, 4.98)
occurrence of total adverse events compared to placebo, OR (humans; 24 mg daily dose): 2.23 (95% CI: 1.13, 4.43)
occurrence of total adverse events compared to placebo, OR (humans; 36 mg daily dose): 2.04 (95% CI: 1,08,3.84)
change in body weight at week 26 (humans; 45 mg daily compared to 12, 24 or 36 mg/day): highest change in body weight
occurrence of total adverse events compared to placebo, OR (humans; 45 mg daily dose): 2.96 (95% CI: 1.41, 6.21)
total adverse events compared to placebo (humans; all doses (12, 24, 36, 45 mg daily)): significantly higher
activity on rodent GLP-1R (rodent GLP-1R): inactive

N#Cc1nn(-c2cc(Cl)c(Oc3n[nH]c(=O)c4ccccc34)c(Cl)c2)c(=O)[nH]c1=O [Compound 9, 2-(3,5-dichloro-4-((4-oxo-3,4-dihydrophthalazin−1-yl)oxy)phenyl)-3,5-dioxo-2,3,4,5-tetrahydro-1,2,4-triazine-6-carbonitrile]
average food intake (male DIO mice [2]): normalized semaglutide-induced reduction in food intake
heat production (male DIO mice [3]; after 5 weeks of treatment): increased both dark and light-phase heat production
energy expenditure (EE) (male DIO mice [3]; assessed after week 4): restored energy expenditure to normal (DIO Veh) levels when combined with semaglutide
plasma insulin level (male DIO mice [4]): increased
uncoupling protein 1 (UCP-1) expression [5]: partially restored the obesity induced lowering of UCP-1
fat mass change from baseline (DIO hGLP-1R mice; Day 19, PO QD): remained relatively unchanged
lean mass change from baseline (DIO hGLP-1R mice; Day 19, PO QD): negligible
body weight changes from baseline over time (DIO hGLP-1R mice): remained relatively unchanged; also recorded: comparable to a 10-fold higher dose of orforglipron as monotherapy
terminal subcutaneous fat (DIO hGLP-1R mice; PO QD): not significantly different from mice treated with vehicle
AUC(0-t) ([1]; mouse, in vivo, po, 3 mg/kg): 19000 ng·h/mL
Cmax ([1]; mouse, in vivo, po, 3 mg/kg): 2480 ng/mL
exposure (dose proportionality, effect of combination) ([1]; mouse, in vivo, po): unaffected when dosed in combination with orforglipron
